Source: BindingDB's records for doi:10.1021/ml400413c (Dart Neuroscience, 2013)

Tests used:
[1] = biological target: T1, Peroxisome proliferator-activated receptor delta (Homo sapiens, UniProt Q03181); test: Agonist activity at human PPARdelta ligand binding domain expressed in monkey COS7 cells cotransfected with Gal4 by luciferase reporter gene assay
T1 sequence (Q03181 whole entry): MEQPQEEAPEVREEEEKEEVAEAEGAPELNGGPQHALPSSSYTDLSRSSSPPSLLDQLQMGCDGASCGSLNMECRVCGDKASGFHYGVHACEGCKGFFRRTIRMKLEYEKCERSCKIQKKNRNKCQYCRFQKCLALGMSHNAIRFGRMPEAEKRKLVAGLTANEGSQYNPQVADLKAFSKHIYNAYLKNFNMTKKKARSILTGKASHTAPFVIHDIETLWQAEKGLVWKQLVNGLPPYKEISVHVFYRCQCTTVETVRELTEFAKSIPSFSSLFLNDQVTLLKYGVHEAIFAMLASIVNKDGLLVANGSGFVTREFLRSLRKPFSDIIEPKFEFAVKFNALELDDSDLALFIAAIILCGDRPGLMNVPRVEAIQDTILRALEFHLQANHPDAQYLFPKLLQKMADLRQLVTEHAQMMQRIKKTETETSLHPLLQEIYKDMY

[2] = biological target: T2, Peroxisome proliferator-activated receptor gamma (Homo sapiens, UniProt P37231); test: Agonist activity at human PPARgamma ligand binding domain expressed in monkey COS7 cells cotransfected with Gal4 by luciferase reporter gene assay
T2 sequence (P37231 whole entry): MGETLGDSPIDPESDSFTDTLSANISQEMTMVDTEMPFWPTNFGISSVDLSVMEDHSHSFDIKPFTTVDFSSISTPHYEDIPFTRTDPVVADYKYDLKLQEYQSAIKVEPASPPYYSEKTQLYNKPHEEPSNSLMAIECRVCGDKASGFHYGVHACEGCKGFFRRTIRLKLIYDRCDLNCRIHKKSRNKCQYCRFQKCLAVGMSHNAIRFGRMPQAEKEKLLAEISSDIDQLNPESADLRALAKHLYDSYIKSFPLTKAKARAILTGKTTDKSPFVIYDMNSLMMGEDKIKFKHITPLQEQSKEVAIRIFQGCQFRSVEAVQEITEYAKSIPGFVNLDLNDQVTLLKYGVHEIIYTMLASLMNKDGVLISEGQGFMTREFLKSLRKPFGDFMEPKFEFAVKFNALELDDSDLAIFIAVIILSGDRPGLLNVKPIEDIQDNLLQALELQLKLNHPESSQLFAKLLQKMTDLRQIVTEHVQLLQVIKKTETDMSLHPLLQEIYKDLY

| EC50 [1] [nM] | EC50 [2] [nM] | Structure (SMILES) |
| --- | --- | --- |
| 54 | 19 | COC(c1ccc(Br)cc1)C1CC1c1cc(C)c(OC(C)(C)C(=O)O)c(C)c1 (stereo not drawn) |
| – | 39 | CCOC(c1ccc(OC(F)(F)F)cc1)C1CC1c1cc(C)c(OC(C)(C)C(=O)O)c(C)c1 (stereo not drawn) |
